Measurements published in ChEMBL document CHEMBL3046726, “Cytotoxic and genotoxic potentials of newly synthesized antiviral aminopyrazoloquinoline derivatives” (Med Chem Res, 2008).

Assays:
MCF-10A [1] = assay: Induction of apoptosis in Homo sapiens (human) MCF10A cells at 100 uM after 72 hr by flow cytometry; type: cell-based
MCF7 [2] = assay: Cell cycle arrest in Homo sapiens (human) MCF7 cells at 10 uM after 72 hr by flow cytometry; type: ADME, cell-based; details: mcf7, 72 h
MDA-MB-231 [3] = assay: Cell cycle arrest in Homo sapiens (human) MDA-MB-231 cells at 10 uM after 72 hr by flow cytometry; type: ADME, cell-based; details: mda-mb-231, 72 h
MCF-12A [4] = assay: Cell cycle arrest in Homo sapiens (human) MCF12A cells at 10 uM after 72 hr by flow cytometry; type: ADME, cell-based
MDA-MB-231 [5] = assay: Induction of apoptosis in Homo sapiens (human) MDA-MB-231 cells at 10 uM after 72 hr by flow cytometry; type: cell-based; details: mda-mb-231, 72 h
MCF-12A [6] = assay: Induction of apoptosis in Homo sapiens (human) MCF12A cells at 10 uM after 72 hr by flow cytometry; type: cell-based
MCF7 [7] = assay: Induction of apoptosis in Homo sapiens (human) MCF7 cells at 10 uM after 72 hr by flow cytometry; type: cell-based; details: mcf7, 72 h
MDA-MB-231 [8] = assay: Cytotoxicity against Homo sapiens (human) MDA-MB-231 cells at 10 uM after 72 hr; type: cell-based; details: mda-mb-231, 72 h
MCF-12A [9] = assay: Cytotoxicity against Homo sapiens (human) MCF12A cells at 10 uM after 72 hr; type: cell-based
MCF7 [10] = assay: Cytotoxicity against Homo sapiens (human) MCF7 cells at 10 uM after 72 hr; type: cell-based; details: mcf7, 72 h
MDA-MB-231 [11] = assay: Cell cycle arrest in Homo sapiens (human) MDA-MB-231 cells assessed as accumulation at G2/M phase at 100 uM after 72 hr by flow cytometry; type: ADME, cell-based; details: mda-mb-231, 72 h
MCF7 [12] = assay: Cell cycle arrest in Homo sapiens (human) MCF7 cells assessed as accumulation at G2/M phase at 100 uM after 72 hr by flow cytometry; type: ADME, cell-based; details: mcf7, 72 h
MCF-12A [13] = assay: Cell cycle arrest in Homo sapiens (human) MCF12A cells assessed as accumulation at G2/M phase at 100 uM after 72 hr by flow cytometry; type: ADME, cell-based
MCF-10A [14] = assay: Cell cycle arrest in Homo sapiens (human) MCF10A cells assessed as accumulation at G2/M phase at 100 uM after 72 hr by flow cytometry; type: ADME, cell-based
MDA-MB-231 [15] = assay: Induction of apoptosis in Homo sapiens (human) MDA-MB-231 cells at 100 uM after 72 hr by flow cytometry; type: cell-based; details: mda-mb-231, 72 h
MCF7 [16] = assay: Induction of apoptosis in Homo sapiens (human) MCF7 cells at 100 uM after 72 hr by flow cytometry; type: cell-based; details: mcf7, 72 h
MCF-12A [17] = assay: Induction of apoptosis in Homo sapiens (human) MCF12A cells at 100 uM after 72 hr by flow cytometry; type: cell-based
MDA-MB-231 [18] = assay: Cell cycle arrest in Homo sapiens (human) MDA-MB-231 cells assessed as accumulation at G2/M phase at 50 uM after 72 hr by flow cytometry; type: ADME, cell-based; details: mda-mb-231, 72 h
MCF7 [19] = assay: Cell cycle arrest in Homo sapiens (human) MCF7 cells assessed as accumulation at G2/M phase at 50 uM after 72 hr by flow cytometry; type: ADME, cell-based; details: mcf7, 72 h
MCF-12A [20] = assay: Cell cycle arrest in Homo sapiens (human) MCF12A cells assessed as accumulation at G2/M phase at 50 uM after 72 hr by flow cytometry; type: ADME, cell-based
MCF-10A [21] = assay: Cell cycle arrest in Homo sapiens (human) MCF10A cells assessed as accumulation at G2/M phase at 50 uM after 72 hr by flow cytometry; type: ADME, cell-based
MDA-MB-231 [22] = assay: Induction of apoptosis in Homo sapiens (human) MDA-MB-231 cells at 50 uM after 72 hr by flow cytometry; type: cell-based; details: mda-mb-231, 72 h
MCF7 [23] = assay: Induction of apoptosis in Homo sapiens (human) MCF7 cells at 50 uM after 72 hr by flow cytometry; type: cell-based; details: mcf7, 72 h
MCF-12A [24] = assay: Induction of apoptosis in Homo sapiens (human) MCF12A cells at 50 uM after 72 hr by flow cytometry; type: cell-based
MCF-10A [25] = assay: Induction of apoptosis in Homo sapiens (human) MCF10A cells at 50 uM after 72 hr by flow cytometry; type: cell-based
MCF7 [26] = assay: Induction of BP-DNA adduct formation in Homo sapiens (human) MCF7 cells at 100 uM after 24 hr by 32P-postlabeling technique relative to control; type: cell-based; details: mcf7, 24 h
MDA-MB-231 [27] = assay: Genotoxicity in Homo sapiens (human) MDA-MB-231 cells assessed as reduction of BP-DNA adduct formation at 100 uM after 24 hr by 32P-postlabeling technique; type: toxicity, cell-based; parameters: scale not given: the % may be the effect or the level left; details: mda-mb-231, 24 h
MCF-12A [28] = assay: Genotoxicity in Homo sapiens (human) MCF12A cells assessed as reduction of BP-DNA adduct formation at 100 uM after 24 hr by 32P-postlabeling technique; type: toxicity, cell-based; parameters: scale not given: the % may be the effect or the level left
MCF7 [29] = assay: Cytotoxicity against Homo sapiens (human) MCF7 cells at 100 uM after 72 hr; type: cell-based; details: mcf7, 72 h
MCF-10A [30] = assay: Cytotoxicity against Homo sapiens (human) MCF10A cells at 100 uM after 72 hr; type: cell-based
MCF-12A [31] = assay: Cytotoxicity against Homo sapiens (human) MCF12A cells at 100 uM after 72 hr; type: cell-based
MDA-MB-231 [32] = assay: Cytotoxicity against Homo sapiens (human) MDA-MB-231 cells at 50 uM after 72 hr; type: cell-based; details: mda-mb-231, 72 h
MCF7 [33] = assay: Cytotoxicity against Homo sapiens (human) MCF7 cells at 50 uM after 72 hr; type: cell-based; details: mcf7, 72 h
MCF-10A [34] = assay: Cytotoxicity against Homo sapiens (human) MCF10A cells at 50 uM after 72 hr; type: cell-based
MCF-12A [35] = assay: Cytotoxicity against Homo sapiens (human) MCF12A cells at 50 uM after 72 hr; type: cell-based
MDA-MB-231 [36] = assay: Cytotoxicity against Homo sapiens (human) MDA-MB-231 cells at 100 uM after 72 hr; type: cell-based; details: mda-mb-231, 72 h

For `Nc1[nH]nc2nc3ccccc3cc12`, the Activity (MCF-10A [1]) was “Toxic”, the Activity (MCF7 [2]) was “Non-toxic” and the Activity (MDA-MB-231 [3]) was “Non-toxic”. The Activity (MCF-12A [4]) was “Non-toxic”, the Activity (MDA-MB-231 [5]) was “Non-toxic” and the Activity (MCF-12A [6]) was “Non-toxic”. For the same compound, the Activity (MCF7 [7]) was “Non-toxic”, the Activity (MDA-MB-231 [8]) was “Non-toxic” and the Activity (MCF-12A [9]) was “Non-toxic”. For the same compound, the Activity (MCF7 [10]) was “Non-toxic”, the Activity (MDA-MB-231 [11]) was “Non-toxic” and the Activity (MCF7 [12]) was “Non-toxic”. For the same compound, the Activity (MCF-12A [13]) was “Non-toxic”, the Activity (MCF-10A [14]) was “Non-toxic” and the Activity (MDA-MB-231 [15]) was “Non-toxic”. The Activity (MCF7 [16]) was “Non-toxic” and the Activity (MCF-12A [17]) was “Toxic”.

In the case of `Cc1ccc2cc3c(N)[nH]nc3nc2c1`, the Activity (MCF-10A [1]) is reported as “Toxic”, the Activity (MDA-MB-231 [18]) is reported as “Non-toxic” and the Activity (MCF7 [19]) is reported as “Non-toxic”. For the same compound, the Activity (MCF-12A [20]) was “Non-toxic”, the Activity (MCF-10A [21]) was “Non-toxic” and the Activity (MDA-MB-231 [22]) was “Non-toxic”. For the same compound, the Activity (MCF7 [23]) was “Non-toxic”, the Activity (MCF-12A [24]) was “Toxic” and the Activity (MCF-10A [25]) was “Toxic”. For the same compound, the Activity (MCF7 [2]) was “Non-toxic”, the Activity (MDA-MB-231 [3]) was “Non-toxic” and the Activity (MCF-12A [4]) was “Non-toxic”. The Activity (MDA-MB-231 [5]) was “Non-toxic”, the Activity (MCF-12A [6]) was “Non-toxic” and the Activity (MCF7 [7]) was “Non-toxic”. For the same compound, the Activity (MDA-MB-231 [8]) was “Non-toxic”, the Activity (MCF-12A [9]) was “Non-toxic” and the Activity (MCF7 [10]) was “Non-toxic”. The “fold change (FC)” value (MCF7 [26]) was 3.5, the Activity (MDA-MB-231 [11]) was “Non-toxic” and the Activity (MCF7 [12]) was “Non-toxic”. The Activity (MCF-12A [13]) was “Non-toxic”, the Activity (MCF-10A [14]) was “Non-toxic” and the Activity (MDA-MB-231 [15]) was “Non-toxic”. The Activity (MCF7 [16]) was “Non-toxic” and the Activity (MCF-12A [17]) was “Toxic”.

In the case of `COc1ccc2cc3c(N)n[nH]c3nc2c1`, the Activity (MDA-MB-231 [18]) is reported as 35%, the Activity (MCF-12A [20]) is reported as 20% and the Activity (MCF-10A [21]) is reported as 20%. For the same compound, the Activity (MCF7 [23]) was 10%, the Activity (MCF-12A [24]) was 30% and the Activity (MCF-10A [25]) was 5%. For the same compound, the Activity (MCF7 [2]) was “Non-toxic”, the Activity (MDA-MB-231 [3]) was “Non-toxic” and the Activity (MCF-12A [4]) was “Non-toxic”. The Activity (MDA-MB-231 [5]) was “Non-toxic”, the Activity (MCF-12A [6]) was “Non-toxic” and the Activity (MCF7 [7]) was “Non-toxic”. The Activity (MDA-MB-231 [8]) was “Non-toxic”, the Activity (MCF-12A [9]) was “Non-toxic” and the Activity (MCF7 [10]) was “Non-toxic”. The “fold change (FC)” value (MCF7 [26]) was 2, the Activity (MDA-MB-231 [27]) was > 60% and the Activity (MCF-12A [28]) was 40%. The Activity (MCF7 [29]) was 50%, the Activity (MCF-10A [30]) was 90% and the Activity (MCF-12A [31]) was 90%. For the same compound, the Activity (MDA-MB-231 [32]) was 30%, the Activity (MCF7 [33]) was 30% and the Activity (MCF-10A [34]) was 20%. For the same compound, the Activity (MCF-12A [35]) was 20%, the Activity (MDA-MB-231 [15]) was 80% and the Activity (MCF7 [16]) was 15%.

With `Nc1nc2c(ncn2COCCO)c(=O)[nH]1` [ACYCLOVIR] the Activity (MCF-10A [1]) was “Non-toxic”, the Activity (MDA-MB-231 [18]) was “Non-toxic” and the Activity (MCF7 [19]) was “Non-toxic”. For the same compound, the Activity (MCF-12A [20]) was “Non-toxic”, the Activity (MCF-10A [21]) was “Non-toxic” and the Activity (MDA-MB-231 [22]) was “Non-toxic”. The Activity (MCF7 [23]) was “Non-toxic”, the Activity (MCF-12A [24]) was “Non-toxic” and the Activity (MCF-10A [25]) was “Non-toxic”. The Activity (MCF7 [2]) was “Non-toxic”, the Activity (MDA-MB-231 [3]) was “Non-toxic” and the Activity (MCF-12A [4]) was “Non-toxic”. For the same compound, the Activity (MDA-MB-231 [5]) was “Non-toxic”, the Activity (MCF-12A [6]) was “Non-toxic” and the Activity (MCF7 [7]) was “Non-toxic”. The Activity (MDA-MB-231 [8]) was “Non-toxic”, the Activity (MCF-12A [9]) was “Non-toxic” and the Activity (MCF7 [10]) was “Non-toxic”. The Activity (MDA-MB-231 [36]) was “Non-toxic”, the Activity (MCF7 [29]) was “Non-toxic” and the Activity (MCF-10A [30]) was “Non-toxic”. The Activity (MCF-12A [31]) was “Non-toxic”, the Activity (MDA-MB-231 [32]) was “Non-toxic” and the Activity (MCF7 [33]) was “Non-toxic”. For the same compound, the Activity (MCF-10A [34]) was “Non-toxic”, the Activity (MCF-12A [35]) was “Non-toxic” and the Activity (MDA-MB-231 [11]) was “Non-toxic”. The Activity (MCF7 [12]) was “Non-toxic”, the Activity (MCF-12A [13]) was “Non-toxic” and the Activity (MCF-10A [14]) was “Non-toxic”. For the same compound, the Activity (MDA-MB-231 [15]) was “Non-toxic”, the Activity (MCF7 [16]) was “Non-toxic” and the Activity (MCF-12A [17]) was “Non-toxic”.
